Data reported in the METLIN SMRT retention time set (Domingo-Almenara et al. 2019).

Assay: gradient 5% acetonitrile 3 min, to 50% in 2 min, to 85% in 15 min, held 3 min, 100 µL/min
Conditions: column: Zorbax Extend-C18 2.1 x 50 mm; eluents: water / acetonitrile, 0.1% formic acid
Method in brief: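 Retention times come from adduct peaks that were picked computationally and then checked by hand. The standards, pure and pooled in mixtures of ~100 molecules, were run on a Zorbax Extend-C18 column (2.1 × 50 mm, 1.8 μm) at 100 μL/min with water and acetonitrile, each with 0.1% formic acid. Detection was by quadrupole time-of-flight mass spectrometry in positive and negative ionization mode, with a dead volume of 40 μL and a dwell volume of 900 μL.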

Row | Compound | RP-LC retention time
1 | CN(C)C1CCc2[nH]c3c(F)cc(F)cc3c2C1 (centres undefined) | 685 s
2 | O=C(NCc1ccc(F)cc1)c1ccc2ncnc(N3CCCC3)c2c1 | 646 s
3 | O=S(=O)(c1ccccc1C(F)(F)F)N1CCc2nc(-c3ccc(F)cc3)ncc2C1 | 1150 s
4 | O=C(NC1CCN(C(=O)c2cc(-c3cccs3)[nH]n2)CC1)c1ccc(Cl)cc1 | 778 s
5 | Cc1ccc(C)c(NC(=O)N2CCC(n3cnc4ccc(Cl)cc4c3=O)CC2)c1 | 929 s
6 | CN(c1nccn2c(=O)n(CC(=O)Nc3ccc4c(c3)OCO4)nc12)C1CCCCC1 | 716 s
7 | Cc1nc(-c2csc(S(=O)(=O)N3CCC(C(=O)N4CC=C(c5ccccc5)CC4)CC3)c2)no1 | 1000 s
8 | CC1CCN(S(=O)(=O)c2ccc3nn(Cc4ccc(Cl)cc4)c(=O)n3c2)CC1 | 819 s
9 | CCN(CC)C(=O)Cn1c(C(F)(F)F)nc2cc3c(cc21)OCCO3 | 811 s
10 | O=C(c1ccoc1)N1CCc2cc(-c3csc(C4CC4)n3)ccc21 | 1060 s
11 | O=C1C(N2CCN(S(=O)(=O)c3ccccc3Cl)CC2)CCN1CCc1ccccc1 (centres undefined) | 672 s
12 | Cc1nnc(-c2cc(C)n(CC(=O)Nc3ccc(F)cc3)c2C)o1 | 754 s
13 | COc1ccccc1N1CCN(C(=O)C2CC(=O)N(c3ccc4oc(C)nc4c3)C2)CC1 (centres undefined) | 693 s
14 | Cc1ccnc(C(=O)Nc2ccc(Nc3ccc(-n4nc(C)c(C)c4C)nn3)cc2)n1 | 692 s
15 | CCCCNC(=O)c1nc(Nc2ccc(F)cc2)c2ccccc2n1 | 796 s
16 | C=CCN1C(=O)COc2ccc(-c3csc(NC(=O)c4cccc(Br)c4)n3)cc21 | 1120 s
17 | O=C(c1cc2ccccc2o1)N1CCN(Cc2ccsc2)CC1 | 578 s
18 | COc1cccc(C2CC(c3ccc(F)cc3)=NC3(CCN(C)CC3)N2)c1O (centres undefined) | 590 s
19 | NC1(Cc2ccc(Cl)cc2)CCN(c2ncnc3[nH]ccc23)CC1 | 602 s
20 | Cc1sc(-c2cc(C(F)(F)F)on2)cc1S(=O)(=O)N1CCN(c2ccccc2)CC1 | 1300 s
21 | N#Cc1ccc(C(=O)N2CCC(CCOCC3CC3)CC2)cc1 | 862 s
22 | O=C(NCc1ccc(Cl)cc1)C1CCCN(c2nn3c(=O)c4c(nc3s2)CCCC4)C1 (centres undefined) | 808 s
23 | CC1(C(=O)NC2CCCCCCC2)CN(S(C)(=O)=O)CC(=O)N1c1ccc(F)cc1F (centres undefined) | 952 s

Row | Compound | RP-LC retention time
24 | Cc1cc(NC(=O)c2ccccc2Br)nc2c1c(=O)oc1ccccc12 | 1010 s
25 | O=C(O)c1nnn(-c2ccccc2F)c1-c1cccnc1 | 612 s
26 | CCCN1C(=O)COc2ccc(-c3noc(-c4ccc(C(F)(F)F)cc4)n3)cc21 | 1050 s
27 | Cc1cc(N2CCN(C)CC2)nc2ccc(NC(=O)C3CCC(C(C)(C)C)CC3)cc12 (centres undefined) | 675 s
28 | C=C[C@H]1CN2CCC1C[C@@H]2C(O)c1ccnc2ccccc12 (some centres undefined) | 576 s
29 | Cc1ccc(-c2noc(-c3ccc(N4CCN(c5ccccn5)CC4)nc3)n2)cc1 | 805 s
30 | COc1cccc(NC(=O)Nc2cc(-c3cn4cccnc4n3)ccc2OC)c1 | 654 s
31 | COCCN1C(=O)c2ccccc2C(C(=O)Nc2cccnc2)C1c1cccs1 (centres undefined) | 581 s
32 | CC(C)N1CCc2c(sc(NC(=O)COc3ccc(Cl)cc3Cl)c2C(N)=O)C1 | 598 s
33 | COc1cccc(CC(=O)N2C[C@@H]3C[C@H]2C[C@@H]3NS(=O)(=O)c2ccccc2)c1 | 764 s
34 | CNC(=O)c1nn(-c2ccc(OC)c(OC)c2)c(OC)cc1=O | 590 s
35 | COCCn1c(-c2cccc(OC)c2)cnc1NC(=O)Nc1cccc(Cl)c1 | 714 s
36 | O=C(Nc1nncs1)C1CCN(C(=O)c2ccccc2F)CC1 | 641 s
37 | CCCC(C(=O)OCCN(CC)CC)(c1ccccc1)c1ccccc1 | 920 s
38 | Cc1cccc(CNC2=NCCNC23CCN(S(=O)(=O)c2ccc(Cl)cc2)CC3)c1 | 762 s
39 | CCC(=O)N1c2ccc(S(=O)(=O)N3CCCCC3)cc2CC1C(=O)NCCCc1ccccc1 (centres undefined) | 977 s
40 | COCCn1c(CCCC(=O)N2CCN(c3ncccn3)CC2)nc2cccnc21 | 596 s
41 | CCCCN(CC)Cc1ccc(CNC(=O)C2CCCN(c3nnc(N4CCCC4=O)s3)C2)o1 (centres undefined) | 611 s
42 | CCOc1ccc2ncc(C(=O)c3ccc(OC)cc3)c(N3CCN(CC)CC3)c2c1 | 600 s
43 | COc1ccc(CN2CCOC2=O)cc1OC | 649 s
44 | Cc1ccc2nsnc2c1NC(=O)Cn1c(-c2cncs2)nc2ccccc21 | 682 s
45 | O=C1CC(/C=C/c2ccccc2)Cc2nc(N3CCN(Cc4ccc5c(c4)OCO5)CC3)ncc21 (centres undefined) | 782 s
46 | CN(C)c1ccc(-c2nc3cnccn3c2Nc2ccc(Br)cc2)cc1 | 894 s

Row | Compound | RP-LC retention time
47 | c1ccc(CCc2nc3nccc(-c4cccnc4)n3n2)cc1 | 726 s
48 | Cc1c(C(=O)N2CCOCC2)cnn1-c1cc(-c2nc(C3CC3)no2)ccn1 | 797 s
49 | COc1ccc2nc(C(=O)NCc3cccc(Br)c3)cn2n1 | 896 s
50 | Cc1c(C(=O)NCC(C)C)cnn1-c1cc(-c2nc(C(C)C)no2)ccn1 | 1010 s
51 | COc1ccccc1C(=O)N1CCN(c2cnn3c(C4CC4)nnc3c2)CC1 | 623 s
52 | Cc1ccc(-c2noc(-c3cccc(S(=O)(=O)N4CCOCC4)c3)n2)cc1 | 1120 s
53 | CCOC(=O)C1=C(CN2CCC(Cc3ccccc3)CC2)NC(=O)NC1c1ccco1 (centres undefined) | 708 s
54 | Fc1ccc(-c2noc(Cc3nnc(-c4cc(F)cc(F)c4)o3)n2)cc1 | 1030 s
55 | CCOc1ccccc1NC(=O)C1CCN(S(=O)(=O)c2cc(-c3noc(C)n3)sc2C)CC1 | 1010 s
56 | CC(C)NC(=O)c1ccc(OCC2CCCN2C(=O)C(C)C)cc1 (centres undefined) | 757 s
57 | Cc1nn2c(CNS(=O)(=O)c3ccccc3F)c(-c3ccccc3)nc2s1 | 834 s
58 | CCN1CCN(CCNC(=O)c2cc3n(n2)CCCN(Cc2ccc(C)cc2)C3=O)CC1 | 614 s
59 | CCn1cc(C(=O)Nc2cc(C)cc(C)c2)c(S(=O)(=O)N2CCSCC2)n1 | 944 s
60 | COc1coc(C(=O)N2CCN(S(C)(=O)=O)CC2)cc1=O | 548 s
61 | O=C(C1COc2ccccc2O1)N1CCCC(c2nnc(-c3ccccc3F)s2)C1 (centres undefined) | 922 s
62 | Cc1cc(C(=O)NC2CCc3nnc(C)n3CC2)c(C)n1Cc1ccco1 (centres undefined) | 643 s
63 | O=C(NCC1(CO)CC1)NC(c1ccccc1)c1ccccc1 | 706 s
64 | Cc1nn(CC(=O)NCc2ccncc2)c(=O)c2nc(-c3ccccc3)sc12 | 615 s
65 | CCCC(=O)Nc1ccc(-c2nc(Cn3cccn3)c(C)o2)cc1 | 759 s
66 | OCCNCc1ccc(-c2ccc(Cl)cc2Cl)o1 | 642 s
67 | O=C(CSc1ncnc2c(-c3ccccc3)c[nH]c12)Nc1ccc2c(c1)OCO2 | 824 s
68 | CCc1ccc(NC(=O)C2CCCN(S(=O)(=O)c3cn(CC)cn3)C2)cc1 (centres undefined) | 753 s
69 | COc1ccccc1CCN1CC(=O)N(c2ccc(C)c(C)c2)[C@@H]2CS(=O)(=O)C[C@@H]21 | 897 s

Row | Compound | RP-LC retention time
70 | O=C(Nc1cccc2nsnc12)C1CCN(S(=O)(=O)N2CCCC2)CC1 | 862 s
71 | Cc1ccc(N2C(=O)CN(S(=O)(=O)c3ccccc3)CC2(C)C(=O)NC2CCCC2)cc1C (centres undefined) | 963 s
72 | CCC1CCCCN1CCCNC(=O)CCc1cc2ccccc2[nH]c1=O (centres undefined) | 598 s
73 | COCCN1C(=O)CCC2(C(=O)NCc3ccc(Cl)cc3)CCCC=C12 (centres undefined) | 787 s
74 | O=C(Cn1cc(S(=O)(=O)N2CCOCC2)ccc1=O)N1CCCc2ccccc21 | 750 s
75 | CCCCN(C)c1ccc2nnc(CCc3nc(-c4cccc(C)c4)no3)n2n1 | 951 s
76 | CCCN1CCN(C(=O)CC(c2ccc(C)cc2)N2Cc3ccccc3C2=O)CC1 (centres undefined) | 666 s
77 | CC(=O)Nc1ccc(S(=O)(=O)N2CCN(c3cnn4c(C)nnc4c3)CC2)cc1 | 593 s
78 | O=C(Cn1cccc1-c1nc(-c2ccc3c(c2)OCO3)no1)Nc1ccccc1Cl | 1100 s
79 | Cc1[nH]c(C(=O)Nc2ccc(F)cc2F)c(C)c1S(=O)(=O)N1CCCCC1 | 949 s
80 | CC(C)n1ccc(C(=O)Nc2nnc(-c3cc(Cl)sc3Cl)o2)n1 | 858 s
81 | O=C(NCc1ccccc1F)c1ccc2c(c1)nc1n2CCN(C2CCCCC2)C1=O | 788 s
82 | Cc1nnc(-c2nnc(NCc3cccc(F)c3)c3ccccc23)o1 | 826 s
83 | O=C(CCC1CCCN(S(=O)(=O)c2ccccc2F)C1)NCCN1CCOCC1 (centres undefined) | 642 s
84 | CCN(CC)c1nc(C(=O)N2CCN(C3CCN(C)CC3)CC2)nc2nc(C)cc(C)c12 | 540 s
85 | Cc1ccc(CNC(=O)Cn2c(N3CCOCC3)nc(C)cc2=O)cc1 | 647 s
86 | O=c1c2sccc2n(Cc2nc(-c3cccc(Br)c3)no2)c(=O)n1-c1cccc(F)c1 | 1080 s
87 | CCC(=O)N1CCc2cc(N3CC(C(=O)NC4CC4)CC3=O)ccc21 (centres undefined) | 620 s
88 | Cc1ccc(Nc2c(-c3ccc(O)cc3)nc3ccccn23)cc1 | 656 s
89 | O=C(NC1CCCC1)c1cc(N2CCCC2)n2nccc2n1 | 908 s
